Patent US20250312473A1, “B7H3 ANTIBODY DRUG CONJUGATES” (BEONE MEDICINES I GMBH, priority 2022, published 2025)

Key:
[1] = HIC methods to evaluate ADC hydrophobicity (DAR8 HIC retention time); format: physicochemical; settings: HIC Method 2
Description: HPLC analysis was carried out under the following measurement conditions: • HPLC system: Waters ACQUITY ARC HPLC System • Detector: measurement wavelength: 280 nm • Column: MABPac HIC-10, 5 μm, 4.6×10 mm (Thermo) • Column temperature: 25° C. • Mobile phase A: 1.5 M ammonium sulfate, 50 mM sodium phosphate, pH 7.0 • Mobile phase B: 50 mM sodium phosphate, pH 7.0 • Gradient program: 20% B—20% B (0 min-1 min), 0% B-0% B (1 min-35 min), 20% B-20% B (35 min-40 min) • Flow rate: 0.5 mL/min
Sample preparation: The sample was diluted with initial mobile phase to 0.5 mg/mL.
DAR8 HIC retention time (min) is an indication of the relative hydrophobicity of an ADC. ADCs with higher DAR8 HIC retention have a higher hydrophobic property.

NCI-H1650 = test: ADC direct killing, 3D culture, NCI-H1650; format: cell-based, human; settings: 6 days
Description: The base medium for NCI-H1650 is ATCC-formulated RPMI-1640 Medium, ATCC 30-2001. To make the complete growth medium, fetal bovine serum was added to the base medium to a final concentration of 10% (Gibco, 10099-141C). The cell line was grown in a humidified 5% CO2 atmosphere at 37° C., and was regularly tested for the presence of mycoplasma with MycoAlert™ PLUS Mycoplasma Detection Kit (Lonza, LT07-710).
(§1) NCI-H1650, NCI-H1048, MDA-MB-453 (2E3/well) or Capan-1 (4E3/well) cells were seeded into 3D-96-well plates (Corning: 4520) at 80 μl/well and incubated at 37° C., 5% CO2, overnight.
(§2) Fresh growth medium containing the varying concentrations of ADCs was added at 40 µl/well. The cells were incubated at 37° C., 5% CO2, 6 days.
(§3) The cell viability was detected by 3D reagent (Promega, G9683), […]. The plates were allowed to incubate at room temperature for 30 minutes to stabilize the luminescent signal. Then the plates were analyzed with a microplate reader.

Capan-1 = test: ADC direct killing, 3D culture, Capan-1; format: cell-based, human; settings: 6 days
Description: Capan-1 is a cell line with epithelial morphology that was isolated from the pancreas of a person with pancreatic adenocarcinoma, and Capan-1 was purchased from ATCC. The base medium for Capan-1 is ATCC-formulated Iscove's Modified Dulbecco's Medium, Catalog No. 30-2005. To make the complete growth medium, fetal bovine serum was added to the base medium to a final concentration of 20% (Gibco, 10099-141C). The cell line was grown in a humidified 5% CO2 atmosphere at 37° C., and was regularly tested for the presence of mycoplasma with MycoAlert™ PLUS Mycoplasma Detection Kit (Lonza, LT07-710).
as §1, §2, §3

NCI-H1048 = test: ADC direct killing, 3D culture, NCI-H1048; format: cell-based, human; settings: 6 days
Description: The base medium for NCI-H1048 is ATCC-formulated DMEM:F12 Medium Catalog No. 30-2006. To make the complete growth medium, fetal bovine serum was added to the base medium to a final concentration of 10% (Gibco, 10099-141C). The cell line was grown in a humidified 5% CO2 atmosphere at 37° C., and was regularly tested for the presence of mycoplasma with MycoAlert™ PLUS Mycoplasma Detection Kit (Lonza, LT07-710).
as §1, §2, §3

[2] = tested on: NCI-H358:MDA-MB-453-nanoLuc = 10:1; test: ADC bystander killing, NCI-H358/MDA-MB-453 (nano-Luc) co-culture; format: cell-based, human; settings: co-culture 10:1, 3D, 6 days
Description: Method: MDA-MB-453-nanoLuc cell line construction PT67-nanoLuc cells were cultured, then the cell-culture medium (containing the virus (nano-Luc gene)) was collected and filtered. MDA-MB-453 cells were seed in 6-well plates at 1E5 cells/well, and incubated at 37° C., 5% CO2, overnight. The PT67-nanoLuc cell medium and 8 ug/mli polybrene was added. The infection was repeated 3 times, every one day. Then the MDA-MB-453-nanoLuc cells were cultured with the addition of 1 mg/ml Geneticin for 5 days. The MDA-MB-453-nanoLuc cells were collected, and Nano-Glo reagent (Promega: N1120) was added to test the nano-Luc transfection efficiency.
Method: ADC Bystander Killing NCI-H358 & MDA-MB-453-nanoLuc (10:1), or MDA-MB-453-nanoLuc cels alone were seeded into 3D-96-well plates (Corning: 4520) at 80 μl/well, and Incubated at 37° C., 5% CO2, overnight. Fresh growth medium containing the varying concentrations of ADCs was added at 40 μl/well. The cells were incubated at 37° C., 5% CO2, 6 days. The 3D-plates were centrifuged at 1500 rpm, 25° C., […], then the supernatant was discarded.
The […] cell viability was detected by Nano-Glo reagent (Promega: N1120), 150 μl/well. The 3D-plates were allowed to incubate at room temperature for 10 minutes to stabilize the luminescent signal. Then the plates were analyzed with a microplate reader.

[3] = tested on: H1650 xenografts (B7H3 IHC 3+); test: ADC in vivo efficacy study, H1650 xenografts; parameters: species or system BALB/c Nude mice; settings: for TGI (%) at T 28: day 28; for TGI (%) at T 30: day 30
Description: Female BALB/c Nude mice were subcutaneously implanted with 3×10^6 H1650 cells per 200 μL PBS/matrigel in the right flank. After inoculation, tumor volumes were determined twice weekly in two dimensions using a caliper, and were expressed in mm^3 using the formula: V=0.5(a×b^2) where a and b are the long and short dimensions of the tumor, respectively.
Partial regression (PR) was defined as tumor volume smaller than 50% of the starting tumor volume on the first day of dosing in three consecutive measurements and complete regression (CR) was defined as tumor volume less than 14 mm^3 in three consecutive measurements. Data is presented as mean tumor volume±standard error of the mean (SEM). Tumor growth inhibition (TGI) is calculated using formula (TGI):
[formula] • treated t=treated tumor volume at time t • treated t0=treated tumor volume at time 0 • placebo t=placebo tumor volume at time t • placebo t0=placebo tumor volume at time 0

[4] = tested on: H1975 xenografts (B7H3 IHC 3+); test: ADC in vivo efficacy study, H1975 xenografts; parameters: species or system BALB/c Nude mice; settings: study (5); 3 mpk (3 mg/kg) i.v. on day 1; day 31

Substance: ADC3-A: "ADC3-A is the biosimilar ADC of DS7300a (benchmark)"; antibody MABX-9001a, average DAR 3.99
- HIC DAR8 RT (min) Method 2 [1]: 21.817 (Meth - od 2) min
- EC50 (NCI-H1650; Table 6, NCI-H1650 (High)): 8.2 nM
- Emax (%) (NCI-H1650; Table 6, NCI-H1650 (High)): 54.2%
- EC50 (NCI-H1650; Table 7, NCI-H1650 (High)): 8.2 nM
- Emax (%) (NCI-H1650; Table 7, NCI-H1650 (High)): 54.2%
- EC50 (NCI-H1650; Table 8, NCI-H1650 (High)): 10.9 nM
- Emax (%) (NCI-H1650; Table 8, NCI-H1650 (High)): 33.1%
- EC50 (NCI-H1650; Table 9, NCI-H1650 (High)): 5.7 nM
- Emax (%) (NCI-H1650; Table 9, NCI-H1650 (High)): 62.0%
- EC50 (NCI-H1650; Table 10, NCI-H1650 (High)): 7.4 nM
- Emax (%) (NCI-H1650; Table 10, NCI-H1650 (High)): 61.1%
- EC50 (Capan-1; Table 6, Capan-1 (Low)): 4 nM
- Emax (%) (Capan-1; Table 6, Capan-1 (Low)): 66.7%
- EC50 (Capan-1; Table 7, Capan-1 (Low)): 4 nM
- Emax (%) (Capan-1; Table 7, Capan-1 (Low)): 66.7%
- EC50 (Capan-1; Table 8, Capan-1 (Low)): 1.7 nM
- Emax (%) (Capan-1; Table 8, Capan-1 (Low)): 71.4%
- EC50 (NCI-H1048; Table 9, NCI-H1048 (Low)): 1.2 nM
- Emax (%) (NCI-H1048; Table 9, NCI-H1048 (Low)): 98.9%
- EC50 (NCI-H1048; Table 10, NCI-H1048 (Low)): 2.6 nM
- Emax (%) (NCI-H1048; Table 10, NCI-H1048 (Low)): 99.0%
- EC50 ([2]; Table 11): 9.8 nM
- Emax (%) bystander killing ([2]; Table 11): 89.1%
- EC50 ([2]; Table 12): 9.8 nM
- Emax (%) bystander killing ([2]; Table 12): 89.1%
- EC50 ([2]; Table 13): 5.4 nM
- Emax (%) bystander killing ([2]; Table 13): 82.3%
- EC50 ([2]; Table 14): 13 nM
- Emax (%) bystander killing ([2]; Table 14): 89.5%
- TGI (%) at T 28 ([3]; study (1), 3 mpk (3 mg/kg) i.v. on day 1): 53%
- TGI (%) at T 28 ([3]; study (1), 10 mpk (10 mg/kg) i.v. on day 1): 86%
- TGI (%) at T 30 ([3]; study (2), 10 mpk (10 mg/kg) i.v. on day 1): 85%
- TGI (%) at T 30 ([3]; study (3), 10 mpk (10 mg/kg) i.v. on day 1): 85%
- TGI (%) at T 28 ([3]; study (4), 10 mpk (10 mg/kg) i.v. on day 1): 70%
- TGI (%) at T 31 [4]: 56%
